Assay results: ChEMBL document CHEMBL1201862, “PubChem BioAssay data set” (2004)
Values belong to the compound of their own block, whether it stands above or below them. Active and inactive are the calls of the source.

Tests used:
[1] = biological target: T1, Trace amine-associated receptor 1 (Homo sapiens, UniProt Q96RJ0); experiment: Counterscreen for agonists of the human trace amine associated receptor 1 (hTAAR1): Fluorescence-based cell-based high throughput dose response assay to identify hTAAR1 agonist that also desensitize TAAR1 receptor response.; type: functional
T1 sequence (Q96RJ0 whole entry): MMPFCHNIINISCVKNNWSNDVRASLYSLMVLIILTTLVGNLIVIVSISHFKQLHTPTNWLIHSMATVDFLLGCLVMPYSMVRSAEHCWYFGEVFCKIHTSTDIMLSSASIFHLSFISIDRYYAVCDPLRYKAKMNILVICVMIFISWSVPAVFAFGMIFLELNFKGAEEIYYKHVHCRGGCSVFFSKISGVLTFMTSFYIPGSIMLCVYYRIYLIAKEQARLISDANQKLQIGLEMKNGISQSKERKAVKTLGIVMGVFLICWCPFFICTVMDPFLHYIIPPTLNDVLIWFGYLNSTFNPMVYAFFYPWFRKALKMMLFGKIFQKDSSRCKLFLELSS

[2] = biological target: T1, Trace amine-associated receptor 1; experiment: Fluorescence-based cell-based high throughput dose response assay to identify agonists of the human trace amine associated receptor 1 (TAAR1).; type: functional
cells [3] = type: functional, cell-based
cells [4] = type: functional, cell-based; remark: listed apart in the source
[5] = inhibitors of HIV Env-driven cell fusion, dose response, cherry-pick (AID 652057); type: functional, cell-based
[6] = inhibitors of clade B AD8 Env fusion, dose response, cell-based, cherry-pick (AID 652062); type: functional;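 note: luciferase signal from cell-cell fusion driven by HIV-1 clade B AD8 Env; potency is for inhibitors of fusion seen as a drop in luminescence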
[7] = CEM21 lymphoblast cell cytotoxicity, dose response, cytotoxicity control for viral fusion inhibitor project, CellTiter-Glo luminescence, cherry-picked (AID 652042); type: functional, cell-based;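 note: potency for signal decrease meaning cytotoxicity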
[8] = off-target signal loss in HeLa-CEM21 co-culture – HeLa F-luc CTL cells, cherry-picked, counter-screen for HIV-1 Env fusion inhibitor project, dose response (AID 652040); type: functional, cell-based;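 note: potency for signal decrease marking cytotoxic or nonspecific inhibition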
[9] = ZM109 Env clade C HIV-1 fusion inhibitors, dose response, HeLa effector, CEM target cells, luciferase, cherry-pick (AID 652058); type: functional, cell-based
X-box-binding protein 1 = biological target: T2, X-box-binding protein 1 (Homo sapiens, UniProt P17861); type: functional, Cricetulus griseus;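 note: confirmatory dose-response counter-screen serving a CHOP assay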
T2 sequence (P17861 whole entry): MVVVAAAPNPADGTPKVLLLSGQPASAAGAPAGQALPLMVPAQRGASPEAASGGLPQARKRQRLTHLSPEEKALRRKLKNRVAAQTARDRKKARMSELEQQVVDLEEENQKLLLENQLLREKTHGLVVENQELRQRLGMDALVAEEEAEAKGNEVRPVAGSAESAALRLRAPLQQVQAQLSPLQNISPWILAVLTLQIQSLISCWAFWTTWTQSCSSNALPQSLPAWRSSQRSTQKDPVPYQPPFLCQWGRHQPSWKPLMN

HEK293 [10] = experiment: HEK cell cytotoxicity by LDH release, dose response, cytotoxicity control for IDE activator project, fluorescence, HEK cells (AID 588440); type: functional, cell-based; conditions: Homo sapiens;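 note: cytotoxicity by LDH release measuring loss of membrane integrity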
Insulin-degrading enzyme [11] = biological target: T3, Insulin-degrading enzyme (Homo sapiens, UniProt P14735); experiment: activators of endogenous IDE in HEK cells, dose response, cell-based, fluorescence polarization (AID 588439); type: functional
T3 sequence (P14735 whole entry): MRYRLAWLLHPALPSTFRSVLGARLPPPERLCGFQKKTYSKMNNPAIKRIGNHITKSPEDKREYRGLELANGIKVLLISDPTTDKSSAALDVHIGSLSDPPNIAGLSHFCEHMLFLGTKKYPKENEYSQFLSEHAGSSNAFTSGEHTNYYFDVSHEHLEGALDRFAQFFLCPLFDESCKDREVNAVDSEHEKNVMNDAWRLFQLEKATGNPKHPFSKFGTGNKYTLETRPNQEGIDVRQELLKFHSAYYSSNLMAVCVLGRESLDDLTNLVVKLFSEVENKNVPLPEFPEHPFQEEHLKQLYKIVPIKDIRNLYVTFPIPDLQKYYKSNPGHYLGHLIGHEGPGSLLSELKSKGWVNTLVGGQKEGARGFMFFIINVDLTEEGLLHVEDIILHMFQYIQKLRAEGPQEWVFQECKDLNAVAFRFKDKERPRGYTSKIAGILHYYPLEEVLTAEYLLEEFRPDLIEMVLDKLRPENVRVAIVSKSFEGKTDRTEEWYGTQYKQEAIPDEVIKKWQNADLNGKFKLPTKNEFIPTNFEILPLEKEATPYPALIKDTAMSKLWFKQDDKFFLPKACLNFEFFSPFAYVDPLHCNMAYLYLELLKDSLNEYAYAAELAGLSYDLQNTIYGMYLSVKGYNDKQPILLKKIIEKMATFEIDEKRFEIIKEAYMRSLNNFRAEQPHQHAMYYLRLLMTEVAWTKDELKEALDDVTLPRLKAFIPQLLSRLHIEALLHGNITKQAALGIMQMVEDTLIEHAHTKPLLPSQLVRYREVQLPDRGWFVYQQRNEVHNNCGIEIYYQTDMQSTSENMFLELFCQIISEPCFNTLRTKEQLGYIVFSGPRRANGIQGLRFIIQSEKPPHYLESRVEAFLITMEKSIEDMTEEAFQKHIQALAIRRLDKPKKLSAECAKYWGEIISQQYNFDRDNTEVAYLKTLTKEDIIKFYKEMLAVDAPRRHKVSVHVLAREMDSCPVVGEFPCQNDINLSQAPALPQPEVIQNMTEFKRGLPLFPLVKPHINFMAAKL

INS1 = experiment: beta cell apoptosis inhibitors, cytokine rescue, dose response, luminescence, retest (AID 449756); type: functional, cell-based; conditions: Rattus norvegicus;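 note: cell death triggered by IL-1 beta plus TNF-alpha plus IFN-gamma mixture; protective hits raise ATP signal compared with cytokine alone wells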
Insulin-degrading enzyme [12] = biological target: T3, Insulin-degrading enzyme; experiment: activators of recombinant IDE enzyme, dose response, counter-screen for IDE activator project, biochemical, fluorescence polarization (AID 588681)
Orexin receptor type 2 [13] = biological target: T4, Orexin receptor type 2 (Homo sapiens, UniProt O43614); experiment: Counterscreen assay for antagonists of the orexin 1 receptor (OX1R; HCRTR1): Homogeneous Time Resolved Fluorescence (HTRF)-based cell-based dose response assay for antagonists of the orexin 2 receptor (OX2R; HCRTR2), run by assay provider.; type: functional
T4 sequence (O43614 whole entry): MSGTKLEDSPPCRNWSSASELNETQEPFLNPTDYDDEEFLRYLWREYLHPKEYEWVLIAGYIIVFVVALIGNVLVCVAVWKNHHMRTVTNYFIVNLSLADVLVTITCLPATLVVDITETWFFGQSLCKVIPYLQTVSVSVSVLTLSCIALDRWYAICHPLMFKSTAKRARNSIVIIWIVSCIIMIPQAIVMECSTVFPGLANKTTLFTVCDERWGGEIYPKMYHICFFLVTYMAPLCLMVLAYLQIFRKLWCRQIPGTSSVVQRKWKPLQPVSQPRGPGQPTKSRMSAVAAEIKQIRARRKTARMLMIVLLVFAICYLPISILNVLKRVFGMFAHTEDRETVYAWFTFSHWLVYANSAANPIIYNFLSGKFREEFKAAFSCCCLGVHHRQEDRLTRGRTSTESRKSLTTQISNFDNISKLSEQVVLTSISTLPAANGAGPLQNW

Orexin receptor type 2 [14] = biological target: T4, Orexin receptor type 2; experiment: Counterscreen assay for antagonists of the orexin 1 receptor (OX1R; HCRTR1): Fluorescence-based cell-based dose response assay for antagonists of the orexin 2 receptor (OX2R; HCRTR2), run by assay provider.; type: functional
[15] = biological target: T5, Orexin/Hypocretin receptor type 1 (Homo sapiens, UniProt O43613); experiment: Homogeneous Time Resolved Fluorescence (HTRF)-based cell-based high throughput dose response assay for antagonists of the orexin 1 receptor (OX1R; HCRTR1). [Related pubchem assays (depositor defined):AID434989, AID435008, AID463079, AID485270, AID492963, AID492964, AID492965, AID493232, AID504717, AID504718]; type: functional
T5 sequence (O43613 whole entry): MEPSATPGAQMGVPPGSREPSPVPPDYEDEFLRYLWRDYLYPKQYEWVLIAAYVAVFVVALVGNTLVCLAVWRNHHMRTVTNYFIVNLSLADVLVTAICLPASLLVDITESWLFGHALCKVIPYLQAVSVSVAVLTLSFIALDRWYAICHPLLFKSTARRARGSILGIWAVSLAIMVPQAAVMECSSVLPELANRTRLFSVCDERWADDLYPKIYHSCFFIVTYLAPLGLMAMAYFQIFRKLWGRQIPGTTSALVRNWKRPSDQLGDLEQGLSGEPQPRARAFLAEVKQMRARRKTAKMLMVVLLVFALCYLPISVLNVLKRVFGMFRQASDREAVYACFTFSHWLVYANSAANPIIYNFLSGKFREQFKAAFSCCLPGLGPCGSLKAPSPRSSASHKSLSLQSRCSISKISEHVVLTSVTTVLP

CHO-K1 = experiment: (§1) Counterscreen for antagonists of the orexin 1 receptor (OX1R; HCRTR1): Homogeneous time resolved fluorescence (HTRF)-based cell-based dose response assay to identify antagonists of the parental CHO-K1 cell line. [Related pubchem assays (depositor defined):AID434989, AID435008, AID463079, AID485270, AID492963, AID492964, AID492965, AID493232, AID504699, AID504701]; type: functional; conditions: Cricetulus griseus
[16] = as §1, with “Fluorescence-based” for “Homogeneous time resolved fluorescence (HTRF)-based”, “cell-based high throughput” for “cell-based”, “CHO” for “CHO-K1”; type: functional
HEK293 [17] = experiment: optical interference in Abeta FP readout, dose response, artefact control for IDE activator project, biochemical, fluorescence polarization (AID 588442); type: functional, cell-based; conditions: Homo sapiens
[18] = biological target: T5, Orexin/Hypocretin receptor type 1; experiment: Fluorescence-based cell-based high throughput dose response assay for antagonists of the orexin 1 receptor (OX1R; HCRTR1). [Related pubchem assays (depositor defined):AID434989, AID435008, AID463079, AID485270, AID492963, AID492964, AID492965, AID493232, AID504717, AID504718]; type: functional
[19] = human group III sPLA2 inhibitors, dose response, biochemical, QFRET, IC50 (AID 743457);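 note: green fluorescence rise as the enzyme cleaves BODIPY PC-A2 in liposomes; potency for inhibition of the enzyme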

SMILES: CC(C)=C1C2CCC1C(C(=O)NCCc1ccccc1)C2C(=O)O (configuration not stated)
IC50 [1]: 2.42 µM (active) | EC50 [2]: 0.189 µM (active) | EC50 (cells [3]): > 29.9 µM (inactive) | IC50 (cells [4]): > 29.9 µM (inactive)

SMILES: Cn1c(NCc2c(O)ccc3ccccc23)nc2ccccc21
AC50 [5]: 15.4 µM (active) | AC50 [6]: 28.9 µM (active) | AC50 [7]: 58.1 µM (active) | AC50 [8]: 40.6 µM (active) | AC50 [9]: 22.1 µM (active)

SMILES: COc1ccc(OCc2n(CC(=O)OC3CC(C)CCC3C(C)C)c3ccccc3[n+]2C)cc1.[Cl-] (configuration not stated)
Absolute IC50 (XBP1) (X-box-binding protein 1): 10 µM | IC50 (HEK293 [10]): 17 µM (inactive) | AC50 [5]: 9.99 µM (active) | EC50 (Insulin-degrading enzyme [11]): 15.5 µM (inactive) | AC50 (INS1): 3.9 µM (active) | EC50 (Insulin-degrading enzyme [12]): > 54.7 µM (inactive) | IC50 (Orexin receptor type 2 [13]): > 50 µM (inactive) | IC50 (Orexin receptor type 2 [14]): 8.9 µM (active) | IC50 [15]: 63.1 µM (inactive) | IC50 (CHO-K1): > 66.2 µM (inactive) | AC50 [6]: 11 µM (active) | AC50 [7]: 9.49 µM (active) | AC50 [8]: 17.2 µM (active) | IC50 [16]: 15.3 µM (inactive) | AC50 [9]: 16.4 µM (active) | EC50 (HEK293 [17]): > 54.7 µM (inactive) | IC50 [18]: 8.69 µM (active)

IC50 [19]: 63.5 µM (inactive)
SMILES: CCCCC(=O)Nc1ccc(C(=O)NNC(=S)NC(=O)c2cccs2)cc1
